These results are taken from US20080287299A1, “Use of Imidazole and/or Triazole Derivatives for Combating Plant Pests; as Well as Method for Controlling Diseases/Insects/Mites/Nematodes and Weeds, Particularly Foliar and/or Soil Diseases” (priority 2005, published 2008).

The subject of assay [1] is Phakopsora pachyrhizi. Nature of the assay: Greenhouse soybean rust test, plants at V6 stage, evaluated every 5 days. It is filed as in vivo. Particulars: for effective in controlling soybean rust: from 50 grams of active ingredient per hectare. The text has this:
Recent tests carried out in greenhouses the laboratory of FMC Quimica do Brasil Ltda. in Uberaba, MG, Brazil, show the highly fungicidal effect of said specific imidazole and/or triazole derivatives in combating diseases of plants, particularly against the attack by the fungus Phakopsora pachyrhizi on soybeans, as described hereinafter. […]
Equipment: a manual sprayer commonly used in agriculture with 2-liter capacity.
Dosages: 50 to 500 grams per hectare of the active compound Fluconazole per liter diluted in water.
Evaluations of the Effectiveness of the Product: The evaluations were made every 5 days after application of the product, in a total of 4 evaluations. As an evaluation parameter one utilized the severity of the disease (percentage of foliar area attacked by rust) according to the diagrammatic scale of the EMBRAPA (FIG. 1). […]
Dosages: 50 to 500 grams per hectare of the active compound Itraconazole per liter diluted in water.

Assay [2] has as its system Phakopsora pachyrhizi. The assay is described as follows: Field evaluation of fungicides for control of soybean asian rust, Rondonópolis, MT, Brazil. It is filed as in vivo. As for the experimental part:
Results of the 2nd step with defined crops (Evaluation of efficiency of fungicides for controlling soybean asian rust caused by Phakopsora pachyrhizi in the State of Mato Grosso, Brazil)
Several fungicides were evaluated in the control of soybean asian rust (Table 1A). The experiment was effected in Rondonópolis, MT, Brazil, harvest 2005/06, in a commercial area with soybean cultivar. The experiment consisted of 13 treatments (Table 1A).
The experimental outlining was random, in blocks, with 13 treatments and 4 repetitions. Each plot consisted of 6 lines of 6 m, spaced 0.45 m.
The culture traits were suited to the good development of the soybean crop, uniformly applied in the whole experiment.
The spraying was effected in stadiums R3 and R5.1, with coast CO2 sprayer provided with a JA-02-type beak, under a pressure of 0.31 MPa (45 psi), using 110 L of broth per ha. At the first application, the plants were presenting the beginning of rust symptoms at their foliar areas.
The rust was evaluated by analysing the percentage of foliar area affected by the disease, according to Godoy et al., in the plants of the three central lines. Evaluationa related to soybean injury and severity were effected in 14 and 21 days after the first application (DDA), by means of visual observation of the leaves of the plot plants.

[3] abbreviates: Dose 1000 P.C. mL ha^−1, 14 days after the first application.
Setting [4] is: Dose 1000 P.C. mL ha^−1, 21 days after the first application.

SMILES strings stand for the structures.

With `CCC(C)n1ncn(-c2ccc(N3CCN(c4ccc(OC[C@H]5CO[C@](Cn6cncn6)(c6ccc(Cl)cc6Cl)O5)cc4)CC3)cc2)c1=O` (mixture of isomers) [Itraconazole, 4-[4-[4-[4-[[2-(2,4-dichlorophenyl)-2-(1H-1,2,4-triazol-1-ylmethyl)-1,3-dioxolan-4-yl]methoxy]phenyl]-1-pipera-zinyl]phenyl]-2,4-dihydro-2-(1-methylpropyl) 3H-1,2,4-triazol-3-one], the “SEVERITY OF RUST (% IFA) 5 DAT” value in the assay on Phakopsora pachyrhizi [1] (Table 3: 50 g ac/ha, soybean) was 6 % IFA; in the assay on Phakopsora pachyrhizi [1] (Table 3: 100 g ac/ha, soybean), 5 % IFA; in the assay on Phakopsora pachyrhizi [1] (Table 3: 150 g ac/ha, soybean), 5 % IFA; in the assay with Phakopsora pachyrhizi [1] (Table 3: 250 g ac/ha, soybean), 3 % IFA; with Phakopsora pachyrhizi [1] (Table 3: 500 g ac/ha, soybean), 0 % IFA. For the same compound, the “SEVERITY OF RUST (% IFA) 10 DAT” value was found to be 12 % IFA in the assay with Phakopsora pachyrhizi [1] (Table 3: 50 g ac/ha, soybean); 13 % IFA with Phakopsora pachyrhizi [1] (Table 3: 100 g ac/ha, soybean); 13 % IFA in the assay with Phakopsora pachyrhizi [1] (Table 3: 150 g ac/ha, soybean); 14 % IFA in the assay on Phakopsora pachyrhizi [1] (Table 3: 250 g ac/ha, soybean); 10 % IFA in the assay with Phakopsora pachyrhizi [1] (Table 3: 500 g ac/ha, soybean). Also, the “SEVERITY OF RUST (% IFA) 15 DAT” value in the assay with Phakopsora pachyrhizi [1] (Table 3: 50 g ac/ha, soybean) came out at 11 % IFA; in the assay with Phakopsora pachyrhizi [1] (Table 3: 100 g ac/ha, soybean) it was 10 % IFA; with Phakopsora pachyrhizi [1] (Table 3: 150 g ac/ha, soybean), 10 % IFA; in the assay on Phakopsora pachyrhizi [1] (Table 3: 250 g ac/ha, soybean), 10 % IFA; in the assay on Phakopsora pachyrhizi [1] (Table 3: 500 g ac/ha, soybean), 0 % IFA. Moreover, in the assay with Phakopsora pachyrhizi [1], the “effective in controlling soybean rust” value is reported as “effective in controlling soybean rust”.

On to `CC(=O)N1CCN(c2ccc(OC[C@H]3CO[C@](Cn4ccnc4)(c4ccc(Cl)cc4Cl)O3)cc2)CC1` (relative stereo) [Ketoconazole, cis-1-acetyl-4-(4-((2-(2,4-dichloro-phenyl)-2-(1H-imidazol-1-ylmethyl)-1,3-dioxolan-4-yl)methoxyl)phenyl)piperazine], for which the “SEVERITY OF RUST (% IFA) 5 DAT” value in the assay on Phakopsora pachyrhizi [1] (100 g ac/ha, soybeans) is on record as 27 % IFA; in the assay with Phakopsora pachyrhizi [1] (200 g ac/ha, soybeans) it was 10 % IFA; in the assay with Phakopsora pachyrhizi [1] (300 g ac/ha, soybeans), 10 % IFA; in the assay on Phakopsora pachyrhizi [1] (400 g ac/ha, soybeans), 11 % IFA; in the assay with Phakopsora pachyrhizi [1] (500 g ac/ha, soybeans), 8 % IFA. Moreover, the “SEVERITY OF RUST (% IFA) 10 DAT” value amounted to 20 % IFA in the assay with Phakopsora pachyrhizi [1] (100 g ac/ha, soybeans); 8 % IFA in the assay with Phakopsora pachyrhizi [1] (200 g ac/ha, soybeans); 6 % IFA in the assay on Phakopsora pachyrhizi [1] (300 g ac/ha, soybeans); 7 % IFA in the assay with Phakopsora pachyrhizi [1] (400 g ac/ha, soybeans); 4 % IFA with Phakopsora pachyrhizi [1] (500 g ac/ha, soybeans). In addition, the “SEVERITY OF RUST (% IFA) 20 DAT” value is given as 45 % IFA in the assay with Phakopsora pachyrhizi [1] (100 g ac/ha, soybeans); 18 % IFA in the assay on Phakopsora pachyrhizi [1] (200 g ac/ha, soybeans); 16 % IFA in the assay with Phakopsora pachyrhizi [1] (300 g ac/ha, soybeans); 15 % IFA in the assay on Phakopsora pachyrhizi [1] (400 g ac/ha, soybeans); 11 % IFA with Phakopsora pachyrhizi [1] (500 g ac/ha, soybeans). For the same compound, in the assay with Phakopsora pachyrhizi [1] (from the dose of 200 grams of active ingredients per hectare), the “effectiveness for controlling soybean rust” value is reported as “imparts effectiveness for controlling soybean rust”. For the same compound, the “Severity - affected foliar area (%) 14 DAA” value with Phakopsora pachyrhizi [2] (setting [3]) stood at 2.0%. Besides, in the assay with Phakopsora pachyrhizi [2] (setting [4]), the “Severity - affected foliar area (%) 21 DAA” value was found to be 7.0%.

For the compound `OC(Cn1cncn1)(Cn1cncn1)c1ccc(F)cc1F` [Fluconazole, alpha-(2,4-difluorophenyl)-alpha-(1H-1,2,4-trizole-1-ylmethyl)-1H-1,2,4-trizole-1-ethanol], the “SEVERITY OF RUST (% IFA) 5 DAT” value is reported as 5 % IFA in the assay with Phakopsora pachyrhizi [1] (Table 2: 50 g ac/ha, soybean); 5 % IFA in the assay with Phakopsora pachyrhizi [1] (Table 2: 100 g ac/ha, soybean); 4 % IFA with Phakopsora pachyrhizi [1] (Table 2: 150 g ac/ha, soybean); 3 % IFA with Phakopsora pachyrhizi [1] (Table 2: 250 g ac/ha, soybean); 0 % IFA with Phakopsora pachyrhizi [1] (Table 2: 500 g ac/ha, soybean). Besides, the “SEVERITY OF RUST (% IFA) 10 DAT” value in the assay on Phakopsora pachyrhizi [1] (Table 2: 50 g ac/ha, soybean) was 10 % IFA; in the assay with Phakopsora pachyrhizi [1] (Table 2: 100 g ac/ha, soybean), 7 % IFA; with Phakopsora pachyrhizi [1] (Table 2: 150 g ac/ha, soybean) it was 6 % IFA; in the assay on Phakopsora pachyrhizi [1] (Table 2: 250 g ac/ha, soybean), 7 % IFA; in the assay with Phakopsora pachyrhizi [1] (Table 2: 500 g ac/ha, soybean) it was 0 % IFA. In addition, the “SEVERITY OF RUST (% IFA) 15 DAT” value with Phakopsora pachyrhizi [1] (Table 2: 50 g ac/ha, soybean) was determined as 12 % IFA; in the assay with Phakopsora pachyrhizi [1] (Table 2: 100 g ac/ha, soybean) it was 10 % IFA; in the assay on Phakopsora pachyrhizi [1] (Table 2: 150 g ac/ha, soybean), 9 % IFA; with Phakopsora pachyrhizi [1] (Table 2: 250 g ac/ha, soybean), 11 % IFA; with Phakopsora pachyrhizi [1] (Table 2: 500 g ac/ha, soybean), 2 % IFA. For the same compound, the “SEVERITY OF RUST (% IFA) 20 DAT” value came out at 12 % IFA in the assay with Phakopsora pachyrhizi [1] (Table 2: 50 g ac/ha, soybean); 11 % IFA in the assay with Phakopsora pachyrhizi [1] (Table 2: 100 g ac/ha, soybean); 10 % IFA with Phakopsora pachyrhizi [1] (Table 2: 150 g ac/ha, soybean); 10 % IFA with Phakopsora pachyrhizi [1] (Table 2: 250 g ac/ha, soybean); 4 % IFA in the assay on Phakopsora pachyrhizi [1] (Table 2: 500 g ac/ha, soybean). Also, the “effective in controlling soybean rust” value in the assay with Phakopsora pachyrhizi [1] is recorded as “effective in controlling soybean rust”. Also, the “Severity - affected foliar area (%) 14 DAA” value in the assay with Phakopsora pachyrhizi [2] (Dose 500 P.C. mL ha^−1, 14 days after the first application) is on record as 0.6%; in the assay on Phakopsora pachyrhizi [2] (Dose 750 P.C. mL ha^−1, 14 days after the first application), 0.5%; in the assay on Phakopsora pachyrhizi [2] (setting [3]), 0.4%. For the same compound, the “Severity - affected foliar area (%) 21 DAA” value in the assay with Phakopsora pachyrhizi [2] (Dose 500 P.C. mL ha^−1, 21 days after the first application) is listed as 4.0%; in the assay on Phakopsora pachyrhizi [2] (Dose 750 P.C. mL ha^−1, 21 days after the first application), 2.0%; in the assay on Phakopsora pachyrhizi [2] (setting [4]), 1.5%.
